Results reported in ChEMBL document CHEMBL1201862, “PubChem BioAssay data set” (2004).
Activity calls are given as the source filed them.

What was measured:
[1] = microbe, parasite or virus in culture; type: functional; settings: Mycobacterium tuberculosis
Streptokinase A = biological target: T1, Streptokinase A (Streptococcus pyogenes serotype M1, UniProt P10520); assay: viability-normalized secreted streptokinase activity reduction – plasminogen activation absorbance, OD405, dose response (AID 1914); type: functional, Streptococcus pyogenes M1 GAS;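 also: secreted streptokinase activity via plasminogen activation per viability signal from cell pellet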
T1 sequence (P10520 whole entry): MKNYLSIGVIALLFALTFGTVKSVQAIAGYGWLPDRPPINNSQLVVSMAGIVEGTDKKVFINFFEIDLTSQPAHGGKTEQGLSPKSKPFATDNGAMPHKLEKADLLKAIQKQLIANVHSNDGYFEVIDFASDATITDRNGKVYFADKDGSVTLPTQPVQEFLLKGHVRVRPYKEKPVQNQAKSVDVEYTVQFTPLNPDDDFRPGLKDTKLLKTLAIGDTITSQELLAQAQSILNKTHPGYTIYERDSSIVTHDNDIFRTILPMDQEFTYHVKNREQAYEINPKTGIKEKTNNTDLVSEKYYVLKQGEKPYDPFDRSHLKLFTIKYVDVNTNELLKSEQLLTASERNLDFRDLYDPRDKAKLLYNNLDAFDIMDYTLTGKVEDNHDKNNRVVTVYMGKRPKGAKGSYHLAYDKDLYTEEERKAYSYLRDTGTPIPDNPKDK

Streptococcus = assay: GAS UMAA2166 growth inhibition – luminescence, BacTiterGlo, counter-screen for streptokinase expression inhibitor project, dose response (AID 1915); type: functional, organism-based;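 also: potency for reduction of bacterial viability or growth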
[2] = tested on: Streptococcus sp. 'group A'; assay: Streptococcus pyogenes SK(-)GAS viability under kanamycin – luminescence, BacTiterGlo, confirmation, counter-screen for streptokinase expression inhibitor project, dose response (AID 1900); type: functional, organism-based
[3] = biological target: T2, Short transient receptor potential channel 4 (Mus musculus, UniProt Q9QUQ5); assay: calcium entry via TRPC4 opening agents – cell-based, HEK293 TRPC4/mu-opioid, Fluo-4 calcium, dose response (AID 434937); type: functional
T2 sequence (Q9QUQ5 whole entry): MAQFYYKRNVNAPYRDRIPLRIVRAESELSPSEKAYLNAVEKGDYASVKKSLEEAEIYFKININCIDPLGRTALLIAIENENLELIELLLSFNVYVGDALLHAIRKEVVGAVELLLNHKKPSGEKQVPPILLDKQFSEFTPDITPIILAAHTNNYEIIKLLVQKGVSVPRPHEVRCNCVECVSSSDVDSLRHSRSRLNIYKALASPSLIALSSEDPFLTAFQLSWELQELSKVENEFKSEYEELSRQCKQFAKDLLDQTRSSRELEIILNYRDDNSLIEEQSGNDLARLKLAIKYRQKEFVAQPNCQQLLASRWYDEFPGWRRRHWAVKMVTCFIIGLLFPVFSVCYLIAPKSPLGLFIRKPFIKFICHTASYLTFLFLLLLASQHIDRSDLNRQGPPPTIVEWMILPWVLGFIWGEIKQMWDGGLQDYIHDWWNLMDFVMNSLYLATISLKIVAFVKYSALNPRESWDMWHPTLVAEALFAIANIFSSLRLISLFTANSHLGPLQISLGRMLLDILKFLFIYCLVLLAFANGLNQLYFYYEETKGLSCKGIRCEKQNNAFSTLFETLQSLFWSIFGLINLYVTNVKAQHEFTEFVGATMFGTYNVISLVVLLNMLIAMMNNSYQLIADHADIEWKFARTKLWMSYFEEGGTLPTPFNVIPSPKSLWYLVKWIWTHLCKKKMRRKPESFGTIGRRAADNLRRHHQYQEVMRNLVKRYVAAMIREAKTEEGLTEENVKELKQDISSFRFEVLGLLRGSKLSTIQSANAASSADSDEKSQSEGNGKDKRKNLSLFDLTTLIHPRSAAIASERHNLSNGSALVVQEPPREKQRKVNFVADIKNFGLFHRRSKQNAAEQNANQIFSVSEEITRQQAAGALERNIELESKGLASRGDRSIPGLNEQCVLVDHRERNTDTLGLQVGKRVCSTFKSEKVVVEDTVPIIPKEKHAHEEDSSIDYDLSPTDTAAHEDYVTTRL

Large T antigen = Large T antigen (Simian virus 40, UniProt P03070); type: functional, Betapolyomavirus macacae;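 also: Confirmatory-stage PubChem screen for compounds that inhibit SV40 T antigen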
cells [4] = type: functional
[5] = biological target: T2, Short transient receptor potential channel 4; assay: block of DAMGO-driven TRPC4 calcium entry – cell-based, HEK293 TRPC4/mu-opioid, Fluo-4 calcium, dose response (AID 434942); type: functional;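 also: potency of inhibitors blocking the TRPC4 calcium response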
Estrogen receptor = biological target: T3, Estrogen receptor (Homo sapiens, UniProt P03372);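 also: potency for inhibiting coactivator peptide recruitment to the receptor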
T3 sequence (P03372 whole entry): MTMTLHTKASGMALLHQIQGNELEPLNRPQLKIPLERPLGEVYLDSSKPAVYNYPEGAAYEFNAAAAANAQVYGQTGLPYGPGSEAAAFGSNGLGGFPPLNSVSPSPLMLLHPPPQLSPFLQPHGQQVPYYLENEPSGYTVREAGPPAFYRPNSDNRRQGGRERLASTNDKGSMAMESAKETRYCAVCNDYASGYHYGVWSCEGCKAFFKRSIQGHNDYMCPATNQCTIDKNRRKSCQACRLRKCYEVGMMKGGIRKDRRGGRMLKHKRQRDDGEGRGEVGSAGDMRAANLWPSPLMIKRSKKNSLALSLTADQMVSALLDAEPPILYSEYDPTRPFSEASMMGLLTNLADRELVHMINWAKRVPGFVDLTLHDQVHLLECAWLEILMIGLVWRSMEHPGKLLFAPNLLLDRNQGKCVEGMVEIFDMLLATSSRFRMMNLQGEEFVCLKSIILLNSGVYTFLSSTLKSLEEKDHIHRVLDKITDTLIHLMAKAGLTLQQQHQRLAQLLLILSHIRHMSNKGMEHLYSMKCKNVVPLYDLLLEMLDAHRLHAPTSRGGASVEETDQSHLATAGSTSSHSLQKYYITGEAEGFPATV

[6] = biological target: T4, RNA-binding protein pos-1 (Caenorhabditis elegans, UniProt G5EF15); assay: disruptors of C. elegans POS-1 RNA interaction – biochemical, fluorescence polarization, dose response (AID 1964);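 also: purified POS-1 fused to maltose binding protein made in E. coli; potency of compounds blocking POS-1 binding to fluorescent RNA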
T4 sequence (G5EF15 whole entry): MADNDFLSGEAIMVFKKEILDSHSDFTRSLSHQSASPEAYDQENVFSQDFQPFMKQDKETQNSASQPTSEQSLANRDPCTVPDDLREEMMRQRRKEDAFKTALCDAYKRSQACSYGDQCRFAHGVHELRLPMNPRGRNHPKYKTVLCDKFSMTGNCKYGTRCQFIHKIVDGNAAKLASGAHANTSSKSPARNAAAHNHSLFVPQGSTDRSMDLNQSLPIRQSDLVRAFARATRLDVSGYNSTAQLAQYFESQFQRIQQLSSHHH

[7] = biological target: T5, Zinc finger protein mex-5 (Caenorhabditis elegans, UniProt Q9XUB2); assay: potency of MEX-5 RNA-binding blockers – biochemical, C. elegans, fluorescence polarization, dose response (AID 1960)
T5 sequence (Q9XUB2 whole entry): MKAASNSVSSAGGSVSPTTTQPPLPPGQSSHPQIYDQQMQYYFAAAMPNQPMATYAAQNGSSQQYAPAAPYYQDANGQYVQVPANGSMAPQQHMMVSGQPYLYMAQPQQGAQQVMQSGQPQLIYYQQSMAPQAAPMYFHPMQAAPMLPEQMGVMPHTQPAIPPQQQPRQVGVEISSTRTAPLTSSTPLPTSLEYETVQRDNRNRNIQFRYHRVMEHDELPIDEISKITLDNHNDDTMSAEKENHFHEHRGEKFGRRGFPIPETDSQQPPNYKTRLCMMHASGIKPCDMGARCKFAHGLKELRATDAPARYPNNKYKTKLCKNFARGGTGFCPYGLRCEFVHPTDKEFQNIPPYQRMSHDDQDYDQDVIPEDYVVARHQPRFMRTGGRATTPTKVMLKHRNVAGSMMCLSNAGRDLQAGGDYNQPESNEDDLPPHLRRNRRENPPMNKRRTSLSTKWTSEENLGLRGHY

cells [8] = type: functional, cell-based
cells [9] = type: functional, cell-based; remark: listed apart in the source
[10] = blockers of HIV-1 envelope-mediated cell-cell fusion – cherry-pick, dose response (AID 652057); type: functional, cell-based
[11] = biological target: T6, Apoptotic protease-activating factor 1 (Homo sapiens, UniProt O14727); type: functional
T6 sequence (O14727 whole entry): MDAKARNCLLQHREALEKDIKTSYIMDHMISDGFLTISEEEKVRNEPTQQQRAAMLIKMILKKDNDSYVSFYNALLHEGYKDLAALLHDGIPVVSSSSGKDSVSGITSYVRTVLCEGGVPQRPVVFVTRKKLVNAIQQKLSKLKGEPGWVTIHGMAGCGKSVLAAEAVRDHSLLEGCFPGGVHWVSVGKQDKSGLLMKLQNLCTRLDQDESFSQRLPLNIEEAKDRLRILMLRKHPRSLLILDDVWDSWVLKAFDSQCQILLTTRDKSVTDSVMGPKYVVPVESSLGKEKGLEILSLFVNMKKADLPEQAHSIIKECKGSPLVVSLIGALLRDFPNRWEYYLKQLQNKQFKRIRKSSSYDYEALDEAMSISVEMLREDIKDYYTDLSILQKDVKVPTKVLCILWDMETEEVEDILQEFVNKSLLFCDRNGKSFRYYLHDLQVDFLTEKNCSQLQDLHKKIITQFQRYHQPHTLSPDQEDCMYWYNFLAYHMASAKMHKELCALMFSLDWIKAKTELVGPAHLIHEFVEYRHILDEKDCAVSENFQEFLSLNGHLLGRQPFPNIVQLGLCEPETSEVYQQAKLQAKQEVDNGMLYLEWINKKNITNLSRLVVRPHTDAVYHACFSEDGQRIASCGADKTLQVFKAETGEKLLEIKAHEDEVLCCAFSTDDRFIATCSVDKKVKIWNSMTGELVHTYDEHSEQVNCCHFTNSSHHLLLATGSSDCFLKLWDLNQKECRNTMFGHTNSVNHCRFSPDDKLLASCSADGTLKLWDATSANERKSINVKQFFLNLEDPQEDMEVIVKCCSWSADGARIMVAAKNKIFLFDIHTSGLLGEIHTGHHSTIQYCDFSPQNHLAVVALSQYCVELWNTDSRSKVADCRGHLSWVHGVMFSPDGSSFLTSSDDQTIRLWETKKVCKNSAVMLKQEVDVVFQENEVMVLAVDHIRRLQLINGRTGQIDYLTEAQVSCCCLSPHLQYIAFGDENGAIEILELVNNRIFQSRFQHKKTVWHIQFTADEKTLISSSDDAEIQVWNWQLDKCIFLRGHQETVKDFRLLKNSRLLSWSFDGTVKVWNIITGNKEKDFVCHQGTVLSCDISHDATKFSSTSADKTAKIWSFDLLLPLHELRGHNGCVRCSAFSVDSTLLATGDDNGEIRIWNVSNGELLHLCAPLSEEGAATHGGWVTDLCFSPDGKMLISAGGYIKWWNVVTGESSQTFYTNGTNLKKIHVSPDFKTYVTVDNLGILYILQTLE

Sequence of Large T antigen (P03070 whole entry): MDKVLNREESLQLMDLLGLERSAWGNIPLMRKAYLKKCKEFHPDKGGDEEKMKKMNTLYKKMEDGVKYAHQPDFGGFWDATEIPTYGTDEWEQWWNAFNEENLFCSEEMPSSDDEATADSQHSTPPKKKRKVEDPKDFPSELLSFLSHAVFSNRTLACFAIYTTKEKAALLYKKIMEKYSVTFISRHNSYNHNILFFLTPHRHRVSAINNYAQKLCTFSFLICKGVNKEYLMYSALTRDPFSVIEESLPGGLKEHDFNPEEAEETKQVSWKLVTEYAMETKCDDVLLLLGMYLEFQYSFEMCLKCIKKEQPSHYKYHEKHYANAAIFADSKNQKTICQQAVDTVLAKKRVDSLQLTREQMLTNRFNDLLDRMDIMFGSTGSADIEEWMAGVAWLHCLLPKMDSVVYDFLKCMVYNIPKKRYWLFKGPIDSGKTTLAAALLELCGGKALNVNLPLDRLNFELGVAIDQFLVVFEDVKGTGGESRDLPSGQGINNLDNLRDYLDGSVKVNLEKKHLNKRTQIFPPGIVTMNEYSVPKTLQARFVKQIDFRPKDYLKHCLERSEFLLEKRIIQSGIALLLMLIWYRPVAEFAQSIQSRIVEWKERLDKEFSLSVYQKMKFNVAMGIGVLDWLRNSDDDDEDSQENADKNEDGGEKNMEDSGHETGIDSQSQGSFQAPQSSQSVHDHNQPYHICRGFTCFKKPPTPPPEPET

Structure (SMILES): CC1Cc2ccccc2N1C(=S)NC(=O)c1ccc(Cl)cc1Cl (stereo not given)
- CC50 [1]: 33 µM (active)
- EC50 (Streptokinase A): > 150 µM (not active)
- EC50 (Streptococcus): 13.7 µM (active)
- EC50 [2]: 5.96 µM (active)

Structure (SMILES): CN1CCCC(OC(=O)c2cc(Cl)cc(Cl)c2)C1 (stereo not given)
- EC50 [3]: 188 nM (active)

Structure (SMILES): CCOc1cc(/C=N\NC(=O)Cn2nnc3ccccc32)ccc1O
- IC50 (Large T antigen): 13.1 µM (active)

Structure (SMILES): O=C(COc1ccc(Br)cc1)Nc1ccc([N+](=O)[O-])cn1
- IC50 (cells [4]): 26.3 µM (active)

Structure (SMILES): Cc1ccc(-c2nn(-c3cccc(F)c3)cc2CNCc2cccnc2)o1
- EC50 [3]: 2660 nM (active)

Structure (SMILES): CC1(C)CC(NC(=O)c2cc(COc3cccc(C(F)(F)F)c3)on2)CCO1 (stereo not given)
- EC50 [5]: 1.88 µM (active)

Structure (SMILES): CN1CCC(=O)N([C@H](CSc2ccc(Br)cc2)Cc2ccccc2)CC1
- EC50 [3]: 4730 nM (active)

Structure (SMILES): O=C(COC(=O)c1ccccc1Oc1ccccc1)NCc1ccco1
- IC50 (Estrogen receptor): 17.9 µM (active)

Structure (SMILES): COc1ccc(-c2nnc(-c3cc4c(ccc5ccccc54)oc3=O)o2)cc1
- IC50 (Estrogen receptor): 20 µM (active)
- EC50 [6]: > 300 µM (not active)
- EC50 [7]: > 300 µM (inconclusive)
- EC50 (cells [8]): > 350 µM (not active)
- EC50 (cells [9]): > 350 µM (not active)

Structure (SMILES): CC(Nc1ccc(N2CCOCC2)cc1)C(=O)N1c2ccccc2CC1C (stereo not given)
- IC50 (Large T antigen): 21.1 µM (active)

Structure (SMILES): Cc1ccc(S(=O)(=O)N(C)C[C@H]2Oc3cc(C4=CCCC4)ccc3S(=O)(=O)N([C@H](C)CO)C[C@H]2C)cc1
- AC50 [10]: 10.1 µM (active)

Structure (SMILES): O=C(COC(=O)CCc1c[nH]c2ccccc12)NCc1ccc(Cl)cc1
- IC50 (cells [4]): 11.8 µM (active)

Structure (SMILES): COc1ccc(OC)c(N2Cc3ccccc3C2=N)c1
- EC50 [5]: 3.35 µM (active)

Structure (SMILES): N#Cc1c(N)sc2c1CCCCCC2
- EC50 [5]: 3.76 µM (active)

Structure (SMILES): Cc1cccc(N(C(=O)c2snc(C(N)=O)c2N)C(C(=O)NCC2CCCO2)c2ccc3ncccc3c2)c1 (stereo not given)
- EC50 [5]: 7.5 µM (active)

Structure (SMILES): COCCNC(=O)c1c(N)n(/N=C/c2cccs2)c2nc3ccccc3nc12
- IC50 (Estrogen receptor): 11.2 µM (active)

Structure (SMILES): CCOC(=O)c1c(NC(=O)C(C)Sc2nnc(C)c(O)n2)sc2c1CCCC2 (stereo not given)
- EC50 [5]: 0.237 µM (active)

Structure (SMILES): COc1cc(Cl)ccc1NC(=O)COc1ccccc1C(=O)N1CCN(c2ccc(O)cc2)CC1
- IC50 (Large T antigen): 13.4 µM (active)

Structure (SMILES): O=C(/C=C/c1ccc(O)c(O)c1)O[C@@H]1C[C@](O)(C(=O)O)C[C@@H](O)[C@H]1O [CHLOROGENIC ACID]
- IC50 (Large T antigen): 14.7 µM (active)

Structure (SMILES): C=C(C)Cc1c(C)c(C#N)c2nc3ccccc3n2c1O
- IC50 [11]: 38.6 µM (active)

Structure (SMILES): CN(C)C(CN=C(S)Nc1ccc(Cl)cc1)c1cccnc1 (stereo not given)
- EC50 [3]: 14.7 nM (active)

Structure (SMILES): O=C1NCC(O)=C1/C=N/c1ccccc1O
- CC50 [1]: > 40 µM (active)
- IC50 (cells [4]): 4.46 µM (active)
